# Data reported in PubChem BioAssay (NCI).
#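 Briefly, cells in 96-well plates were exposed to five compound concentrations for 48 h, and endpoints were estimated by linear interpolation. Definition used: TGI = concentration required for complete inhibition of growth.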
# What was measured:
# Experiment in all cases: NCI tumour cell line growth inhibition, 48 h
# XF 498 CNS = test system: XF 498 CNS
# ACHN renal = test system: ACHN renal
# CAKI-1 renal = test system: CAKI-1 renal
# OVCAR-8 ovarian = test system: OVCAR-8 ovarian
# SR leukemia = test system: SR leukemia
# K-562 leukemia = test system: K-562 leukemia
# UACC-257 melanoma = test system: UACC-257 melanoma
# RPMI-8226 leukemia = test system: RPMI-8226 leukemia
# M19-MEL melanoma = test system: M19-MEL melanoma
# HOP-92 NSCLC = test system: HOP-92 NSCLC
# OVCAR-4 ovarian = test system: OVCAR-4 ovarian
# A498 renal = test system: A498 renal
# SNB-78 CNS = test system: SNB-78 CNS
# SN12K1 renal = test system: SN12K1 renal
# NCI/ADR-RES ovarian = test system: NCI/ADR-RES ovarian
# P388/ADR leukemia = test system: P388/ADR leukemia
# P388 leukemia = test system: P388 leukemia
# MCF7 breast = test system: MCF7 breast
# HOP-18 NSCLC = test system: HOP-18 NSCLC
# M14 melanoma = test system: M14 melanoma
structure (smiles),measurement,setting,value
CC(=O)NNc1nc(C)c(C(=O)NNC(=O)C(=O)Nc2cccc(C(C)=O)c2)s1,TGI,XF 498 CNS,30.6 µM
same,TGI,ACHN renal,30.8 µM
same,TGI,CAKI-1 renal,31.6 µM
same,TGI,OVCAR-8 ovarian,39.4 µM
same,TGI,SR leukemia,45.8 µM
same,TGI,K-562 leukemia,> 100 µM
same,TGI,UACC-257 melanoma,49.9 µM
same,TGI,RPMI-8226 leukemia,> 100 µM
same,TGI,M19-MEL melanoma,43.5 µM
same,TGI,HOP-92 NSCLC,90 µM
same,TGI,OVCAR-4 ovarian,64.3 µM
same,TGI,A498 renal,47.8 µM
same,TGI,SNB-78 CNS,> 100 µM
C[S+](C)CC1OC(n2cnc3c(N)ncnc32)C(O)C1O (stereo unspecified),TGI,XF 498 CNS,> 225 µM
same,TGI,SN12K1 renal,> 225 µM
same,TGI,NCI/ADR-RES ovarian,> 225 µM
same,TGI,CAKI-1 renal,> 225 µM
same,TGI,OVCAR-8 ovarian,> 225 µM
same,TGI,P388/ADR leukemia,> 22.5 µM
same,TGI,K-562 leukemia,> 225 µM
same,TGI,UACC-257 melanoma,> 225 µM
same,TGI,RPMI-8226 leukemia,> 225 µM
same,TGI,M19-MEL melanoma,> 225 µM
same,TGI,HOP-92 NSCLC,> 225 µM
same,TGI,P388 leukemia,> 225 µM
same,TGI,OVCAR-4 ovarian,> 225 µM
same,TGI,A498 renal,> 225 µM
same,TGI,SNB-78 CNS,> 225 µM
same,TGI,MCF7 breast,> 225 µM
CN(C)CCNC(=O)c1cccc2cc3cc(O)ccc3nc12,TGI,XF 498 CNS,2.51 µM
same,TGI,SN12K1 renal,2.66 µM
same,TGI,NCI/ADR-RES ovarian,11.4 µM
same,TGI,OVCAR-8 ovarian,3.34 µM
same,TGI,HOP-18 NSCLC,3.83 µM
same,TGI,P388/ADR leukemia,2.33 µM
same,TGI,K-562 leukemia,11.8 µM
same,TGI,UACC-257 melanoma,2.94 µM
same,TGI,RPMI-8226 leukemia,5.46 µM
same,TGI,M19-MEL melanoma,3.68 µM
same,TGI,HOP-92 NSCLC,3.81 µM
same,TGI,P388 leukemia,1.25 µM
same,TGI,OVCAR-4 ovarian,6.58 µM
same,TGI,A498 renal,2.42 µM
same,TGI,SNB-78 CNS,18.2 µM
same,TGI,MCF7 breast,6.47 µM
COC(=O)C1=C(O)C(C(=O)OC)[C@]2(O)[C@@H](C(=O)OC)[C@H]1C[C@@H](c1ccccc1)[C@@H]2C(=O)OC (stereo partly specified),TGI,ACHN renal,55.7 µM
same,TGI,SR leukemia,24.1 µM
same,TGI,K-562 leukemia,33.4 µM
same,TGI,UACC-257 melanoma,25.8 µM
same,TGI,M14 melanoma,24.5 µM
same,TGI,RPMI-8226 leukemia,31.7 µM
same,TGI,A498 renal,35.2 µM
same,TGI,MCF7 breast,> 100 µM
CC(C)(C)C(=O)OCC1OC(N=[N+]=[N-])C(OC(=O)C(C)(C)C)C(OC(=O)C(C)(C)C)C1OC(=O)C(C)(C)C (stereo unspecified),TGI,XF 498 CNS,> 100 µM
same,TGI,ACHN renal,> 100 µM
same,TGI,CAKI-1 renal,> 100 µM
same,TGI,OVCAR-8 ovarian,> 100 µM
same,TGI,SR leukemia,> 100 µM
same,TGI,K-562 leukemia,> 100 µM
same,TGI,UACC-257 melanoma,> 100 µM
same,TGI,M14 melanoma,> 100 µM
same,TGI,RPMI-8226 leukemia,> 100 µM
same,TGI,HOP-92 NSCLC,> 100 µM
same,TGI,OVCAR-4 ovarian,> 100 µM
same,TGI,A498 renal,> 100 µM
same,TGI,SNB-78 CNS,> 100 µM
Cc1ccc(N(O)C(C)(C)C)cc1,TGI,XF 498 CNS,> 100 µM
same,TGI,SN12K1 renal,> 100 µM
same,TGI,NCI/ADR-RES ovarian,> 100 µM
same,TGI,CAKI-1 renal,> 100 µM
same,TGI,OVCAR-8 ovarian,> 100 µM
same,TGI,HOP-18 NSCLC,> 100 µM
same,TGI,P388/ADR leukemia,> 100 µM
same,TGI,K-562 leukemia,> 100 µM
same,TGI,UACC-257 melanoma,> 100 µM
same,TGI,RPMI-8226 leukemia,> 100 µM
same,TGI,M19-MEL melanoma,> 100 µM
same,TGI,HOP-92 NSCLC,> 100 µM
same,TGI,P388 leukemia,> 100 µM
same,TGI,OVCAR-4 ovarian,> 100 µM
same,TGI,A498 renal,> 100 µM
same,TGI,MCF7 breast,> 100 µM
O=Nn1c2ccccc2c2cc([N+](=O)[O-])ccc21,TGI,NCI/ADR-RES ovarian,74 µM
same,TGI,ACHN renal,29.3 µM
same,TGI,CAKI-1 renal,31.6 µM
same,TGI,OVCAR-8 ovarian,31.6 µM
same,TGI,K-562 leukemia,> 100 µM
same,TGI,UACC-257 melanoma,56.5 µM
same,TGI,M14 melanoma,47.9 µM
same,TGI,RPMI-8226 leukemia,38.8 µM
same,TGI,HOP-92 NSCLC,29.8 µM
same,TGI,OVCAR-4 ovarian,32.1 µM
same,TGI,A498 renal,26.9 µM
same,TGI,MCF7 breast,58 µM
CC(C)OP(=O)(OC(C)C)C1=NN(c2ccc([N+](=O)[O-])cc2)C(P(=O)(OC(C)C)OC(C)C)=NN1c1ccc([N+](=O)[O-])cc1,TGI,XF 498 CNS,> 100 µM
same,TGI,ACHN renal,> 100 µM
same,TGI,CAKI-1 renal,> 100 µM
same,TGI,OVCAR-8 ovarian,> 100 µM
same,TGI,SR leukemia,> 100 µM
same,TGI,HOP-18 NSCLC,> 100 µM
same,TGI,K-562 leukemia,> 100 µM
same,TGI,M14 melanoma,> 100 µM
same,TGI,RPMI-8226 leukemia,> 100 µM
same,TGI,M19-MEL melanoma,> 100 µM
same,TGI,HOP-92 NSCLC,> 100 µM
same,TGI,OVCAR-4 ovarian,> 100 µM
